Measured values from paper PMC4703992, “Crystal structures of Mycobacterium tuberculosis HspAT and ArAT reveal structural basis of their distinct substrate specificities” (Scientific Reports, 2016).

Legend:
[1] = molecular target: T1, mHspAT (Mycobacterium tuberculosis, UniProt P9WML7); format: biochemical; details: pH 8.4, 37 °C
T1 construct: gene hisC; recombinant, vector pYUB1062, over-expressed in M. smegmatis mc2 4517; homodimer

[2] = molecular target: T2, mArAT (Mycobacterium tuberculosis, UniProt P9WML5)
T2 construct: gene pat
T2 sequence (P9WML5 whole entry): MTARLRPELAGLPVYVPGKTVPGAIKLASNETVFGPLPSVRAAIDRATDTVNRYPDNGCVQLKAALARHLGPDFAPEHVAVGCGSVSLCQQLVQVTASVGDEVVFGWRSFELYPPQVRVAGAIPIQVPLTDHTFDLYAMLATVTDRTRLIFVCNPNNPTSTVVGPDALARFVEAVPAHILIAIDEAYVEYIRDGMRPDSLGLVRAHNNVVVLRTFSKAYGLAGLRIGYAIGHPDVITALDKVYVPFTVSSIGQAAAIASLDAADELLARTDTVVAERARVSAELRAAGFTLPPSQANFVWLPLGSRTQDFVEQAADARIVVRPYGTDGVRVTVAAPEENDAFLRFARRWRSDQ

[3] = molecular target: T1, mHspAT; format: binding
[4] = molecular target: T2, mArAT; remark: listed apart in the source
[5] = test system: N[C@@H](Cc1ccccc1)C(=O)O; assay: purified protein; details: pH 8.4; 37.0 °C
[6] = test system: N[C@H](COP(=O)(O)O)Cc1c[nH]cn1; assay: purified protein; details: pH 8.4; 37.0 °C

T1 sequence (P9WML7 whole entry): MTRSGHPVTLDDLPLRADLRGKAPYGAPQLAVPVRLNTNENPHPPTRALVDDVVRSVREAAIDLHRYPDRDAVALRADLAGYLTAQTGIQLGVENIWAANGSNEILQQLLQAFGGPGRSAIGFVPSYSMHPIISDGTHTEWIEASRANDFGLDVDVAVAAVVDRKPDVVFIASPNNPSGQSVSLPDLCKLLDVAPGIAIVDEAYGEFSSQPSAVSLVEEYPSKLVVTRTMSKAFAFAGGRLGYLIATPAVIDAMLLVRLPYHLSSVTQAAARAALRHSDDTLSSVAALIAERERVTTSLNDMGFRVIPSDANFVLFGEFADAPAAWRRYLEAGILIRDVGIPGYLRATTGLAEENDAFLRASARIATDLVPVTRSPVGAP

## O=S(=O)(O)CCN1CCOCC1 [MES]
[1]
  Vo'/Vo: concentration dependent inhibition of mHspAT-Hsp activity with MES

## Cc1ncc(COP(=O)(O)O)c(C=O)c1O [PLP]
[2]
  crystal structure, 1.98 Å: it exists as a PLP-Phe external aldimine intermediate complex in one of the monomers
[3]
  crystal structure, 2.05 Å: binding of the PLP as an internal aldimine via a Schiff’s base with Lys232 Nζ

## Cc1ncc(COP(=O)(O)O)c(CN)c1O [PMP]
[4]
  crystal structure, 1.95 Å: In the active site of mArAT, indigenously bound PMP and succinate were modelled

## N[C@@H](Cc1ccccc1)C(=O)O [Phe]
[2]
  crystal structure, 1.98 Å: Phe is present in the active site of both the monomers of a homodimer

## O=C(O)CCC(=O)O [succinate]
[4]
  crystal structure, 1.95 Å: In the dicarboxylate bound form, succinate exists as a non-covalently linked moiety

## mHspAT (Mycobacterium tuberculosis H37Rv)
[5]
  Km: 7.1 ± 0.81 mM
  kcat/Km: 30000 ± 3000 M⁻¹ s⁻¹
[6]
  Km: 0.42 ± 0.02 mM
  kcat/Km: 1.02e+06 ± 87000 M⁻¹ s⁻¹
